Experimental findings from PubChem BioAssay (NCI) are described below.

Some test systems named below: RXF 393 renal; MOLT-4 leukemia; CCRF-CEM leukemia; UACC-62 melanoma; A498 renal; SNB-19 CNS; RPMI-8226 leukemia; DU-145 prostate; BT-549 breast; MCF7 breast.
Common to all, as to assay: NCI tumour cell line growth inhibition, 48 h

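Values below derive from 48-hour exposures of cells grown in 96-well plates, with endpoints linearly interpolated between the two concentrations bracketing the appropriate inhibition level. GI50 marks 50% less growth. TGI is the concentration that stops growth completely.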

On to `O=C1c2ccccc2C(=O)C12CCc1ccccc12`, for which the TGI in the experiment on RXF 393 renal, with MOLT-4 leukemia, in the experiment on CCRF-CEM leukemia and with UACC-62 melanoma was over 100 µM throughout.

`COc1ccc(/C=C2\CCC(CCN(C)C)(C3=CCCC3)C2=O)cc1` (configuration not stated): the TGI came to 22.7 µM in the experiment on RXF 393 renal; 51 µM with MOLT-4 leukemia; 34.8 µM in the experiment with A498 renal; 53 µM with CCRF-CEM leukemia; 31.6 µM with SNB-19 CNS; 48.7 µM in the experiment on RPMI-8226 leukemia. The molecule further yielded a TGI in the experiment on UACC-62 melanoma of 30.3 µM.

As for `CC1(C)COC2C(N(Cc3ccccc3)Cc3ccccc3)C(=O)N21` (configuration not stated), the TGI with RXF 393 renal was 42.5 µM; in the experiment on MOLT-4 leukemia, over 100 µM; in the experiment on A498 renal, over 100 µM; with CCRF-CEM leukemia it was over 100 µM; with SNB-19 CNS, 71.8 µM; with RPMI-8226 leukemia it was 91.3 µM. This molecule also displayed a TGI in the experiment on UACC-62 melanoma of 61 µM.

Take `Cc1ccc(S(=O)(=O)c2nc(-c3ccccc3)oc2S(C)(=O)=O)cc1`: the GI50 is 1.69 µM in the experiment with RXF 393 renal; 2.27 µM in the experiment on MOLT-4 leukemia; 15.4 µM with A498 renal; 1.71 µM in the experiment on DU-145 prostate; 2.83 µM in the experiment with CCRF-CEM leukemia; 1.85 µM with BT-549 breast. Also, the GI50 with SNB-19 CNS is 11.2 µM; in the experiment with RPMI-8226 leukemia it was 2.33 µM; with UACC-62 melanoma, 1.89 µM. Also, the TGI in the experiment with RXF 393 renal was 3.13 µM; with MOLT-4 leukemia, 5.87 µM; in the experiment with A498 renal, 28.7 µM; in the experiment with DU-145 prostate it was 3.15 µM; in the experiment on CCRF-CEM leukemia, 8.16 µM; in the experiment with BT-549 breast, 3.72 µM. In addition, the TGI was determined as 23.2 µM in the experiment on SNB-19 CNS, 5.88 µM in the experiment with RPMI-8226 leukemia and 3.98 µM in the experiment on UACC-62 melanoma.

Turning to `COC(=O)C(=O)C(CC(=O)Nc1ccc(C)cc1)C(=O)OC` (configuration not stated), the TGI in the experiment with RXF 393 renal, in the experiment on MOLT-4 leukemia, with CCRF-CEM leukemia, in the experiment on SNB-19 CNS, with RPMI-8226 leukemia and in the experiment on UACC-62 melanoma was over 100 µM in each case.

With `COc1cccc(-c2cc(=O)c3cc4c(cc3[nH]2)OCO4)c1`, the TGI in the experiment on RXF 393 renal is 0.474 µM; in the experiment with MOLT-4 leukemia it was over 100 µM; in the experiment with A498 renal, 1.45 µM; with CCRF-CEM leukemia, over 100 µM; in the experiment on SNB-19 CNS it was over 45.1 µM; in the experiment with RPMI-8226 leukemia, over 100 µM. In the experiment with UACC-62 melanoma, this molecule registered a TGI of over 100 µM.

On to `O=C1CCC2(c3ccccc3)Nc3ccccc3N12` (configuration not stated), for which the TGI in the experiment with RXF 393 renal, in the experiment on MOLT-4 leukemia, with A498 renal, with CCRF-CEM leukemia, in the experiment with RPMI-8226 leukemia and with UACC-62 melanoma was over 100 µM in each case.

`COC(=O)C(C(=O)C(=O)Nc1ccc(C)cc1C)c1csc(-n2nc(-c3ccccc3)cc2-c2ccccc2)n1` (configuration not stated): the TGI with RXF 393 renal, in the experiment on MOLT-4 leukemia, with A498 renal, in the experiment on CCRF-CEM leukemia, with SNB-19 CNS and with UACC-62 melanoma was over 100 µM each time.

For `CCCC(=O)N[C@H]1CCc2cc(OC)c(OC)c(OC)c2-c2ccc(SC)c(=O)cc21`, the TGI with MCF7 breast is over 100 µM; in the experiment on MOLT-4 leukemia it was over 66.2 µM; in the experiment with A498 renal, 0.39 µM; with DU-145 prostate, under 0.01 µM; in the experiment with CCRF-CEM leukemia, over 100 µM; in the experiment on BT-549 breast it was under 0.01 µM. The values for the TGI in the experiment on SNB-19 CNS, in the experiment on RPMI-8226 leukemia and in the experiment on UACC-62 melanoma were over 94.6 µM, over 100 µM and over 100 µM, respectively.

As for `C=C1C(=O)C23[C@H](O)C1CC[C@H]2[C@]12COC3(O)[C@@H](O)[C@@H]1C(C)(C)CC[C@@H]2O`, the TGI was 10.9 µM with RXF 393 renal; 33.1 µM in the experiment with MOLT-4 leukemia; 22.7 µM in the experiment with A498 renal; 95 µM in the experiment on CCRF-CEM leukemia; 32.7 µM in the experiment on SNB-19 CNS; 29.3 µM in the experiment with RPMI-8226 leukemia. Moreover, in the experiment on UACC-62 melanoma, the TGI was 23.6 µM.

Take `C#CCN(N=O)C(=O)ON1C(=O)CCC1=O`: the TGI in the experiment on RXF 393 renal, with MOLT-4 leukemia, in the experiment with A498 renal, with CCRF-CEM leukemia, in the experiment on SNB-19 CNS and in the experiment on RPMI-8226 leukemia was over 100 µM each time. The TGI in the experiment on UACC-62 melanoma is over 100 µM.

Take `CC1CC2(S(=O)(=O)c3ccccc3)ON1CC2S(=O)(=O)c1ccccc1` (configuration not stated): the TGI in the experiment on RXF 393 renal, in the experiment on MOLT-4 leukemia, in the experiment on CCRF-CEM leukemia, in the experiment with SNB-19 CNS, in the experiment with RPMI-8226 leukemia and in the experiment with UACC-62 melanoma was over 100 µM in each case.

As to `CN(C)C(=S)/N=c1\ssc(=S)n1C`, the TGI with RXF 393 renal, in the experiment on MOLT-4 leukemia, in the experiment with A498 renal, with CCRF-CEM leukemia, in the experiment on SNB-19 CNS and with RPMI-8226 leukemia was over 100 µM in each case. Moreover, the TGI in the experiment with UACC-62 melanoma was over 100 µM.

`CC(=O)c1ccc(NC(=O)C(=O)C(C(=O)/C=C/c2ccccc2)C2OC(=O)c3ccccc32)cc1` (configuration not stated): the TGI with RXF 393 renal, in the experiment with MOLT-4 leukemia, with A498 renal, with CCRF-CEM leukemia, in the experiment on SNB-19 CNS and in the experiment with RPMI-8226 leukemia was over 100 µM each time. The TGI in the experiment on UACC-62 melanoma is over 100 µM.

Turning to `C[N+](C)(C)CC1CCCCC1=O` (configuration not stated), the TGI is 33.8 µM in the experiment on RXF 393 renal; 35.3 µM in the experiment on MOLT-4 leukemia; 20.2 µM in the experiment on CCRF-CEM leukemia; over 100 µM with SNB-19 CNS; 44.7 µM with RPMI-8226 leukemia; 34 µM in the experiment on UACC-62 melanoma.

As for `COc1ccc(Nc2nc(Nc3cc(C)[nH]n3)c3cc(OC)c(OC)cc3n2)cc1`, the GI50 in the experiment on RXF 393 renal is 1.49 µM; in the experiment with MCF7 breast, 0.457 µM; with MOLT-4 leukemia, 0.389 µM; in the experiment on DU-145 prostate it was 1.03 µM; in the experiment on BT-549 breast, 1.4 µM; with SNB-19 CNS, 1.56 µM. For the same molecule, the GI50 with RPMI-8226 leukemia was 0.278 µM; with UACC-62 melanoma, 1.71 µM. In addition, the TGI in the experiment on RXF 393 renal came out at 2.83 µM; in the experiment on MCF7 breast, 2.05 µM; in the experiment with MOLT-4 leukemia, 2.58 µM; with DU-145 prostate it was 2.24 µM; in the experiment with BT-549 breast it was 2.9 µM; in the experiment with SNB-19 CNS, 3.18 µM. Moreover, the figures for the TGI with RPMI-8226 leukemia and with UACC-62 melanoma were 0.782 µM and 3.39 µM, respectively.

Regarding `N=c1c2ccccc2sc2nc3ccccc3n12`, the TGI in the experiment with RXF 393 renal, in the experiment with MOLT-4 leukemia, in the experiment on A498 renal, in the experiment with CCRF-CEM leukemia, in the experiment with SNB-19 CNS and in the experiment with UACC-62 melanoma was over 100 µM throughout.
